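Where inhibition never reached the appropriate level, the endpoint shown equals the highest concentration tested. Otherwise, values were interpolated linearly from a five-concentration, 48-hour dose response in 96-well plates. GI50: concentration for 50% inhibition of growth. TGI denotes the concentration required for complete inhibition of growth.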
How the values were obtained:
Experiment in all cases: growth of human tumour cells (NCI), 48 h
[1] = system: OVCAR-5 ovarian
[2] = system: SF-295 CNS
[3] = system: NCI-H23 lung
[4] = system: OVCAR-4 ovarian
[5] = system: T-47D breast
[6] = system: HCT-15 colon
[7] = system: SK-OV-3 ovarian
[8] = system: MALME-3M melanoma
[9] = system: MOLT-4 leukemia
[10] = system: CAKI-1 renal
[11] = system: SNB-19 CNS
[12] = system: NCI-H522 lung
[13] = system: KM12 colon
[14] = system: SK-MEL-2 melanoma
[15] = system: K-562 leukemia
[16] = system: HCC-2998 colon
[17] = system: MDA-MB-231 breast
[18] = system: COLO 205 colon
[19] = system: IGROV1 ovarian
[20] = system: U251 CNS
[21] = system: PC-3 prostate
[22] = system: HL-60(TB) leukemia
[23] = system: 786-0 renal
[24] = system: SR leukemia
[25] = system: ACHN renal
[26] = system: MCF7 breast
[27] = system: HT29 colon
[28] = system: BT-549 breast
[29] = system: HS 578T breast
[30] = system: NCI/ADR-RES ovarian
[31] = system: MDA-MB-435
[32] = system: NCI-H460 lung
[33] = system: UACC-257 melanoma
[34] = system: SNB-75 CNS
[35] = system: SF-539 CNS
[36] = system: SK-MEL-28 melanoma
[37] = system: SF-268 CNS
[38] = system: SK-MEL-5 melanoma
[39] = system: EKVX NSCLC
[40] = system: UO-31 renal
[41] = system: OVCAR-3 ovarian
[42] = system: HCT-116 colon
[43] = system: SW-620 colon
[44] = system: RPMI-8226 leukemia
[45] = system: M14 melanoma
[46] = system: HOP-62 NSCLC
[47] = system: HOP-92 NSCLC
[48] = system: SN12C renal
[49] = system: A549 NSCLC
[50] = system: LOX IMVI melanoma
[51] = system: OVCAR-8 ovarian
[52] = system: RXF 393 renal
[53] = system: DU-145 prostate
[54] = system: NCI-H226 lung
[55] = system: UACC-62 melanoma
[56] = system: CCRF-CEM leukemia
[57] = system: TK-10 renal
[58] = system: A498 renal

SMILES: CCOc1ccc(/C=C/C(=O)c2ccccc2)cc1
- GI50 [1]: 19.3 µM
- TGI [1]: 47.1 µM
- GI50 [2]: 16.8 µM
- TGI [2]: 35 µM
- GI50 [3]: 16.9 µM
- TGI [3]: 37.2 µM
- GI50 [4]: 21.5 µM
- TGI [4]: 60.5 µM
- GI50 [5]: 14.2 µM
- TGI [5]: 48.7 µM
- GI50 [6]: 14.6 µM
- TGI [6]: 48 µM
- GI50 [7]: 21.5 µM
- TGI [7]: 56 µM
- GI50 [8]: 17.9 µM
- TGI [8]: 35.2 µM
- GI50 [9]: 18.6 µM
- TGI [9]: 94.9 µM
- GI50 [10]: 14.1 µM
- TGI [10]: 30.7 µM
- GI50 [11]: 16.8 µM
- TGI [11]: 34 µM
- GI50 [12]: 15.4 µM
- TGI [12]: 34.9 µM
- GI50 [13]: 10.7 µM
- TGI [13]: 23.6 µM
- GI50 [14]: 20.4 µM
- TGI [14]: 38.2 µM
- GI50 [15]: 8.05 µM
- TGI [15]: 80.8 µM
- GI50 [16]: 15.6 µM
- TGI [16]: 29.7 µM
- GI50 [17]: 26 µM
- TGI [17]: 72.8 µM
- GI50 [18]: 18 µM
- TGI [18]: 32.4 µM
- GI50 [19]: 16.3 µM
- TGI [19]: 39.7 µM
- GI50 [20]: 7.19 µM
- TGI [20]: 20.7 µM
- GI50 [21]: 23.9 µM
- TGI [21]: 61.4 µM
- GI50 [22]: 25 µM
- TGI [22]: 94.5 µM
- GI50 [23]: 20.6 µM
- TGI [23]: 39.1 µM
- GI50 [24]: 8.5 µM
- TGI [24]: 43.5 µM
- GI50 [25]: 18.1 µM
- TGI [25]: 34.9 µM
- GI50 [26]: 4.12 µM
- TGI [26]: 21 µM
- GI50 [27]: 13.8 µM
- TGI [27]: 29.6 µM
- GI50 [28]: 26.4 µM
- TGI [28]: 62 µM
- GI50 [29]: 20.4 µM
- TGI [29]: 56.3 µM
- GI50 [30]: 18.3 µM
- TGI [30]: 56.3 µM
- GI50 [31]: 12 µM
- TGI [31]: 30.1 µM
- GI50 [32]: 19.5 µM
- TGI [32]: 41.6 µM
- GI50 [33]: 16.1 µM
- TGI [33]: 33.1 µM
- GI50 [34]: 22.4 µM
- TGI [34]: 51.4 µM
- GI50 [35]: 19.4 µM
- TGI [35]: 45.5 µM
- GI50 [36]: 19.8 µM
- TGI [36]: 39.6 µM
- GI50 [37]: 18.7 µM
- TGI [37]: 36.9 µM
- GI50 [38]: 17.1 µM
- TGI [38]: 31.2 µM
- GI50 [39]: 16 µM
- TGI [39]: 30.6 µM
- GI50 [40]: 14.1 µM
- TGI [40]: 28 µM
- GI50 [41]: 15.5 µM
- TGI [41]: 29.3 µM
- GI50 [42]: 12.9 µM
- TGI [42]: 27.4 µM
- GI50 [43]: 7.73 µM
- TGI [43]: 21.1 µM
- GI50 [44]: 3.95 µM
- TGI [44]: 20.5 µM
- GI50 [45]: 18.8 µM
- TGI [45]: 38.9 µM
- GI50 [46]: 18.1 µM
- TGI [46]: 35.4 µM
- GI50 [47]: 19.6 µM
- TGI [47]: 41.2 µM
- GI50 [48]: 18.3 µM
- TGI [48]: 37 µM
- GI50 [49]: 21.9 µM
- TGI [49]: 53.9 µM
- GI50 [50]: 11.9 µM
- TGI [50]: 26.5 µM
- GI50 [51]: 14.8 µM
- TGI [51]: 34.6 µM
- GI50 [52]: 15.2 µM
- TGI [52]: 29.2 µM
- GI50 [53]: 3.95 µM
- TGI [53]: 14.9 µM
- GI50 [54]: 24.7 µM
- TGI [54]: 75.2 µM
- GI50 [55]: 17 µM
- TGI [55]: 36.5 µM
- GI50 [56]: 17.9 µM
- TGI [56]: 62.4 µM
- GI50 [57]: 17.9 µM
- TGI [57]: 34.9 µM
- GI50 [58]: 16.2 µM
- TGI [58]: 33.2 µM
